# Source: patent publication US20050222234A1, “Mucin production inhibitor” (TAIHO PHARMACEUTICAL CO., LTD., priority 2004, published 2005)
# How the values were obtained:
# [1] = tested on: NCI-H292 cells; assay: Mucin production inhibitory action (EGF-stimulated, mucin ELISA of culture supernatant); type: cell-based, human; conditions: for Effect on production of mucin (in words): 1-10 μM, EGF-stimulated NCI-H292 cells
# Protocol: Mucin Production Inhibitory Action
# The test was carried out in accordance with a partially modified method of Takeyama et al. (Proc. Natl. Acad. Sci. USA, Vol. 96, P. 3081-3086, 1999). The specific procedure will be described as follows. NCI-H292 cells, which are human respiratory tract epithelial cell lines, were suspended in a 10% FCS-containing RPMI 1640-culture medium, and disseminated to a 12-well culture plate so that the cell concentration of each well was adjusted to 2×10^5 cell/well, followed by culturing for two days. Subsequently, the culture medium was changed to a 0.2% FCS-containing RPMI culture medium, followed by culturing for another two days. The thus-cultured cells were employed in the test. Each test drug and EGF (25 ng/mL) were added to each well, and the mucin level of the supernatant of the culture 48 hours after initiation of culturing was determined through the ELISA method. Percent inhibition (%) with regard to control value was calculated by supposing the difference produced by subtracting normal value from control value to be 100%. In this case, the control value is defined as the mucin amount in the culture supernatant to which only EGF was added, while the normal value is defined as the muchin amount in the culture supernatant containing neither of test drug and EGF. In addition, cilomilast (J. Pharmacol. Exp. Ther., Vol. 284, p. 420-426, 1998) and roflumilast (J. Pharmacol. Exp. Ther., Vol. 297, p. 267-279, 2001), which are typical phosphodiesterase (IV) inhibitors were also tested in a similar manner.
# [2] = tested on: Lewis Wistar rats; assay: Inhibitory effect on hyperplasia of goblet cells in the respiratory tract epithelium (Sephadex-induced, PAS staining); type: in vivo, rat; conditions: oral, once per day for seven days; Sephadex i.v.; ratio of PAS-positive area
# Protocol: (Welch test), the value in each parenthesis represents percent inhibition (%)
# The test was carried out in accordance with a partially modified method of Matsubara et al. (Int. Arch. Allergy Immunol., Vol. 116, p. 67-75, 1998). The specific procedure will be described as follows. To each of the 7-week old male Lewis Wistar rats, a Sephadex suspension (0.1. mg/mL/head) was intravenously administered (total three times: day 0, 2, and 5). Two days after the final administration, the rat was slaughtered by exsanguination under anesthetic with pentobarbital. The lung-tissue was extirpated from the rat and immersed in a neutral formalin buffer for fixation. […] The ratio of the PAS-stained positive area to the respiratory tract epithelium was calculated by use of an image analysis software (Winroof). Each test compound was suspended in 0.5% hydroxypropylmethyl cellulose (HPMC), and the suspension-was orally administered once per day for continuous seven days from the start of administration of Sephadex. In the Figure, numerical data are represented by mean value±standard deviation (each group: 11-12 samples).
compound,measurement,setting,value
"COc1ccc([C@]2(C#N)CC[C@@H](C(=O)O)CC2)cc1OC1CCCC1 [Cilomilast, cilomilast, reference compound]",Effect on production of mucin (in words),[1],promoted production of mucin
COc1ccc(-c2nc3cc(-n4cncn4)ccc3[nH]2)cc1OCC1CC1 [Compound 1],"Effect on hyperplasia of goblet cells (in words, FIG. 1)",[2],inhibitory effect
CCC(CC)Oc1cc(-c2nc3cc(-n4cncn4)ccc3[nH]2)ccc1OC [Compound 5],inhibition at 1 µM,"[1]; Homo sapiens, NCI-H292, 1 μM test drug, EGF 25 ng/mL, supernatant after 48 hours, read-out: Percent inhibition of mucin production (%)",15.4%
same,inhibition at 3 µM,"[1]; Homo sapiens, NCI-H292, 3 μM test drug, EGF 25 ng/mL, supernatant after 48 hours, read-out: Percent inhibition of mucin production (%)",40.2%
same,inhibition at 10 µM,"[1]; Homo sapiens, NCI-H292, 10 μM test drug, EGF 25 ng/mL, supernatant after 48 hours, read-out: Percent inhibition of mucin production (%)",65.9%
"O=C(Nc1c(Cl)cncc1Cl)c1ccc(OC(F)F)c(OCC2CC2)c1 [Roflumilast, roflumilast, reference compound]",Effect on production of mucin (in words),[1],promoted production of mucin
